Test results from ChEMBL document CHEMBL5257022, “An integrated overview on pyrrolizines as potential anti-inflammatory, analgesic and antipyretic agents” (Eur J Med Chem, 2016).
One block for each compound: values may come before it.

Experiments:
[1] = biological target: T1, Polyunsaturated fatty acid 5-lipoxygenase (Homo sapiens) (UniProt P09917); experiment: Inhibition of 5-LOX in human PMNL at 10 uM relative to control; type: cell-based
T1 sequence (whole entry): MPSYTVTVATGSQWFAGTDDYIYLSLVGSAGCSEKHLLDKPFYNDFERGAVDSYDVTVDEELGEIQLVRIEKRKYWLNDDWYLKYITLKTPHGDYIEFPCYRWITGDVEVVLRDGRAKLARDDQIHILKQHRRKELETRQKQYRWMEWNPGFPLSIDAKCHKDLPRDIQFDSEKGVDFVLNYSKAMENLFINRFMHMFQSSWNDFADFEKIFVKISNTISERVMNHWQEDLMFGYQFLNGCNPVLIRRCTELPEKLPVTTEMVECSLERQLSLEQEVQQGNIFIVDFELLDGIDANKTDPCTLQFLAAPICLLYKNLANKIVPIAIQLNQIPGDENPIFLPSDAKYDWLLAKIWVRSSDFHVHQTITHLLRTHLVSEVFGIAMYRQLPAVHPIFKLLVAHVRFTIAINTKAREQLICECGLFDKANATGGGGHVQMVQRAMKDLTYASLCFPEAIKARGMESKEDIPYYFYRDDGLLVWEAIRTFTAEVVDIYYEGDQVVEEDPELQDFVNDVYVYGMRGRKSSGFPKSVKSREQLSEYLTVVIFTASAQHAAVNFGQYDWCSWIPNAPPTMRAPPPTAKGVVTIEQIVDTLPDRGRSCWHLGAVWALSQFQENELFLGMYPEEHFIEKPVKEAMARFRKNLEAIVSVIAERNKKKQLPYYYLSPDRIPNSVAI

[2] = biological target: T2, Prostaglandin G/H synthase 1 (Bos taurus) (UniProt O62664); experiment: Inhibition of COX1 in bovine thrombocyte at 10 uM relative to control
T2 sequence (whole entry): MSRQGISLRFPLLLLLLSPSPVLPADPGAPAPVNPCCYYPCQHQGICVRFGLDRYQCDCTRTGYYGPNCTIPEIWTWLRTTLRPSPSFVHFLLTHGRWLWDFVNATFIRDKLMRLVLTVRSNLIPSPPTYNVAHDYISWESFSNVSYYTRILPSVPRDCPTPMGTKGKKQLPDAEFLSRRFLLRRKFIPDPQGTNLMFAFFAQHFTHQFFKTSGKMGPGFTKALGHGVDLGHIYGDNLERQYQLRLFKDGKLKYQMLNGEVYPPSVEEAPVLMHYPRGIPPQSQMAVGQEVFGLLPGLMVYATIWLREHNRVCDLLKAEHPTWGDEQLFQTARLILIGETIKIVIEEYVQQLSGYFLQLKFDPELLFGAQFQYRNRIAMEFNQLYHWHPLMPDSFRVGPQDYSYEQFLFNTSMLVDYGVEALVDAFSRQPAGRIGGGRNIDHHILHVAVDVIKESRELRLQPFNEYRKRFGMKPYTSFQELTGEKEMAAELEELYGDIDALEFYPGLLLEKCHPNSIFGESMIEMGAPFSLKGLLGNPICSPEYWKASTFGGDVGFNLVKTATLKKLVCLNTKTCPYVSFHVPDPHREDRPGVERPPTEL

[3] = biological target: T3, Prostaglandin G/H synthase 2 (Homo sapiens, UniProt P35354); experiment: Inhibition of COX2 (unknown origin)
T3 sequence (P35354 whole entry): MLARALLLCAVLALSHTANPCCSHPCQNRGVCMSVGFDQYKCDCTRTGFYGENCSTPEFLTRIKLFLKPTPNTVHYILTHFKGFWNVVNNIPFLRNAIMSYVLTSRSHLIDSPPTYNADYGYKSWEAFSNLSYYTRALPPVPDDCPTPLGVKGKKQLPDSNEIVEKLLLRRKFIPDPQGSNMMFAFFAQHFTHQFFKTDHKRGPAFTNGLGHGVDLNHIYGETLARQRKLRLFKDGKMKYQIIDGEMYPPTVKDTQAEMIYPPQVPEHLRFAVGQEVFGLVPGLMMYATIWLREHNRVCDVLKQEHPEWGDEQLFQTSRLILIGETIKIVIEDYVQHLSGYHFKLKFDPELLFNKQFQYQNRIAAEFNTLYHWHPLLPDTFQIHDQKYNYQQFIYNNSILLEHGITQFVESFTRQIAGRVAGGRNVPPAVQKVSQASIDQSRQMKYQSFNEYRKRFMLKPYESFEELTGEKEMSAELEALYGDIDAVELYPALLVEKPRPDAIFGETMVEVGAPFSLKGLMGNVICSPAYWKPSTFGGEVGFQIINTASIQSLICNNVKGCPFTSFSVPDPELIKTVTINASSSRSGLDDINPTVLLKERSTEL

[4] = biological target: T4, Polyunsaturated fatty acid 5-lipoxygenase (Homo sapiens, UniProt P09917); experiment: Inhibition of 5-LOX (unknown origin)
T4 sequence (P09917 whole entry): T1 sequence (whole entry)

[5] = Gastrointestinal toxicity in rat assessed as ulcer index at 20 mg/kg, po; type: organism-based; settings: in vivo
[6] = system: Rattus norvegicus; experiment: Antiinflammatory activity in rat assessed as inhibition of paw edema; type: functional
[7] = biological target: T5, Prostaglandin G/H synthase 1 (Homo sapiens, UniProt P23219); experiment: Inhibition of COX1 (unknown origin)
T5 sequence (P23219 whole entry): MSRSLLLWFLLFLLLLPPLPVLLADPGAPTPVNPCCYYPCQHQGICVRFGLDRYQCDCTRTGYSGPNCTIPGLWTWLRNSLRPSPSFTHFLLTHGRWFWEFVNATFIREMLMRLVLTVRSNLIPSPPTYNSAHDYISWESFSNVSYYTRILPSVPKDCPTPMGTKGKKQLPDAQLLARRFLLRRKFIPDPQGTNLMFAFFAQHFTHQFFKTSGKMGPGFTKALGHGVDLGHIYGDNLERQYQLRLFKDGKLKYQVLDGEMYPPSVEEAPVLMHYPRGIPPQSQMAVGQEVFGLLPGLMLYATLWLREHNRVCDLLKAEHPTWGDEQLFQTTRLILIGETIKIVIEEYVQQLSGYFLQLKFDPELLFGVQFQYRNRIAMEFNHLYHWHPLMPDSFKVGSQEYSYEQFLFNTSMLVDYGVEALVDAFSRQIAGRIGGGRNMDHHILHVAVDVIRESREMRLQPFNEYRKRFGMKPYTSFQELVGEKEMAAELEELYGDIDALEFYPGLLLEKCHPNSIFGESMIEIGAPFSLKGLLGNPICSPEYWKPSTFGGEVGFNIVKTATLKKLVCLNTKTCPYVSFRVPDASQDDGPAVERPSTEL

[8] = Toxicity in gastric mucosa of rat assessed as ulcer index at 10 mg/kg; type: organism-based; settings: in vivo
[9] = system: Mus musculus; experiment: Analgesic activity in ddY mouse assessed as inhibition of acetic acid induced writhing at 30 mg/kg, po for 30 mins followed by acetic acid injection and measured after 5 to 10 mins; type: functional; set-up: scale not given: the % may be the effect or the level left; settings: time 35-40 min
[10] = system: Rattus norvegicus; experiment: Antiinflammatory activity against carrageenan-induced paw edema in Wistar rat assessed as inhibition of edema at 30 mg/kg, po for 1 hr prior to carrageenan induction; type: functional
[11] = biological target: T3, Prostaglandin G/H synthase 2; experiment: Inhibition of human COX2
[12] = biological target: T5, Prostaglandin G/H synthase 1; experiment: Inhibition of human COX1
[13] = system: Rattus norvegicus; experiment: Antiinflammatory activity in carrageenan induced Sprague-Dawley rat assessed as reduction in edema formation after 3 hrs; type: functional; settings: read-out: ID50 (the source's name)
[14] = species on record: Oryctolagus cuniculus; experiment: Inhibition of collagen-induced platelet aggregation in rabbit concha artery blood at 10 uM; type: functional
[15] = system: Rattus norvegicus; experiment: Antiinflammatory activity in rat assessed as fold change in inhibition of paw edema relative to phenylbutazone; type: functional
[16] = species on record: Mus musculus; experiment: Analgesic activity in mouse assessed as inhibition of acetic acid-induced writhing response relative to aspirin; type: functional
[17] = Drug excretion in human urine assessed as 4-hydroxy keto ro lac level; type: ADME
[18] = Toxicity in gastric mucosa of rat assessed as ulcer index at 400 mg/kg; type: organism-based; settings: in vivo
[19] = Drug excretion in human urine assessed as glucuronide conjugate level; type: ADME
[20] = Drug excretion in human urine assessed as keto ro lac level; type: ADME
[21] = Toxicity in gastric mucosa of rat assessed as ulcer index at 200 mg/kg; type: organism-based; settings: in vivo

- IP [1]: 0%
- IP [2]: 0%
- IC50 [3]: 1.8 µM
SMILES: Cc1ccc(-c2cn3c(c2-c2ccccc2)CCC3)s1

- IP [2]: 10%
- IC50 [4]: 3.4 µM
- IC50 [3]: 3.6 µM
SMILES: CS(=O)(=O)Nc1ccc(-c2cn3c(c2-c2ccccc2)CCC3)cc1

SMILES: O=C(Nc1ccccc1Cl)c1c2[nH]cnc(=O)c2c2n1CCC2
- UI [5]: 15.1
- inhibition (INH) [6]: 30.3%

- IC50 [7]: 10 µM
- IP [2]: 58%
SMILES: O=C(O)/C=C/c1c(-c2ccc(CCc3ccccc3)cc2)c(-c2ccccc2)c2n1CCC2

- IP [1]: 0%
- IP [2]: 0%
SMILES: CS(=O)(=O)Nc1ccc(-c2cn3c(c2-c2ccc(Cl)cc2)CCC3)cc1

SMILES: COc1ccc2c(c1)c(CC(=O)O)c(C)n2C(=O)c1ccc(Cl)cc1 [INDOMETHACIN]
- UI [8]: 14

SMILES: O=C(O)C1CCn2c1cc(-c1ccc(Cl)cc1)c2-c1ccc(Cl)cc1 (configuration not stated)
- Activity [9]: 81.3%
- inhibition in vivo at 30 mg/kg [10]: 52.3%

SMILES: O=C(c1ccccc1)c1ccc2n1CC[C@@H]2C(=O)O
- IC50 [11]: 1.46 µM
- IC50 [12]: 0.46 µM
- ED50 [13]: 0.02 mg/kg

- IP [2]: 25%
- IC50 [4]: 8.4 µM
SMILES: Brc1ccc(-c2cn3c(c2-c2ccccc2)CCC3)s1

- IC50 [4]: 10 µM
SMILES: c1ccc(-c2c(-c3cccs3)cn3c2CCC3)cc1

SMILES: O=C(Nc1ccccc1)C1CCn2c1cc(-c1ccc(Cl)cc1)c2-c1ccc(Cl)cc1 (configuration not stated)
- inhibition in vivo at 30 mg/kg [10]: 37.4%
- inhibition at 10 µM [14]: 78%

SMILES: Cc1ccccc1NC(=O)c1c2[nH]cnc(=O)c2c2n1CCC2
- UI [5]: 17.4
- inhibition (INH) [6]: 28.8%

SMILES: O=C(c1ccccc1)c1ccc2n1CCC2C(=O)O (racemic) [KETOROLAC]
- fold change (FC) [15]: 36
- IC50 [11]: 3.5 µM
- IC50 [12]: 1.23 µM
- ED50 [13]: 0.08 mg/kg
- fold change (FC) [16]: 350

SMILES: Cc1ccccc1NC(=O)c1c(N)c(C#N)c2n1CCC2
- UI [5]: 11.3
- inhibition (INH) [6]: 31.6%

- Drug excretion [17]: 12%
- Drug excretion [19]: 28%
- Drug excretion [20]: 60%
SMILES: Cc1ccc(NCC2Cn3cccc3C2=O)cc1 (configuration not stated)
- UI [18]: 0

SMILES: O=C(c1ccccc1)c1ccc2n1CC[C@H]2C(=O)O
- IC50 [11]: > 100 µM
- IC50 [12]: > 100 µM
- ED50 [13]: 4 mg/kg

SMILES: COc1ccc(-c2c(-c3ccc(Cl)cc3)cc3n2CCC3C(=O)O)cc1 (configuration not stated)
- Activity [9]: 87.3%
- inhibition in vivo at 30 mg/kg [10]: 48.2%

SMILES: CC(C)Cc1ccc(C(C)C(=O)O)cc1 (configuration not stated) [IBUPROFEN]
- UI [21]: 13.3

- IP [2]: 20%
- IC50 [4]: 10 µM
SMILES: c1ccc(-c2c(-c3ccco3)cn3c2CCC3)cc1

- IP [2]: 25%
- IC50 [4]: 10 µM
- IC50 [3]: 0.03 µM
SMILES: CS(=O)(=O)c1ccc(-c2cn3c(c2-c2ccccc2)CCC3)cc1

SMILES: N#Cc1c(N)c(C(=O)Nc2ccccc2Cl)n2c1CCC2
- UI [5]: 9.2
- inhibition (INH) [6]: 36.1%

- IP [1]: 0%
- IP [2]: 28%
- IC50 [3]: 0.1 µM
SMILES: CSc1ccc(-c2cn3c(c2-c2ccc(F)cc2)CCC3)cc1
